Marks after values point to notes of the source that are not given here.
System: 6-OHDA induced Parkinson's Disease-like Zebrafish Larvae Model
Assay: Anti-Parkinson's Disease efficacy test in 6-OHDA zebrafish larvae model
Type: in vivo
Details: soaking at 1.5 μg/mL, co-treated with 6-OHDA

How did the “Anti-Parkinson's Disease Efficacy (Motility Increase Rate)” value turn out when `CN1Cc2c(N)cccc2C(c2ccccc2)C1` (centres unmarked) [Nomifensine] was run?
Its value is 40.9%*.

And the “Total Distance (mm) (Mean ± SE)” value (30 minutes, n = 10)?
The value was 2738 ± 165 mm.

Source: patent US20190167724A1, “NEUROPROTECTIVE COMPOSITION, PREPARATION PROCESS THEREOF AND MEDICAL USES THEREOF” (priority 2017, published 2019)
